# Data published in patent publication USRE36187E, “Acyclic pyrrolo [2,3-d]pyrimidine analogs as antiviral agents” (The Regents of the University of Michigan, priority 1994, dated 1999).
# How the values were obtained:
# [1] = Visual cytotoxicity in BSC-1 cells; assay type: cell-based, African green monkey; conditions: monkey, visual cytotoxicity at time of HSV-1 plaque enumeration, read-out: 50% Inhibitory Concentration, Cytotoxicity BSC
# Description: Cytotoxicity produced in HFF and BSC-1 cells was estimated by visual scoring of cells not affected by virus infection in the HCMV and HSV-1 plaque reduction assays. Cytopathology was estimated at 35- and 60-fold magnification and scored on a zero to four plus basis. Wells were scored on the day of staining.
# HCMV DNA synthesis = HCMV DNA synthesis by dot-blot hybridization; assay type: cell-based, human cytomegalovirus; conditions: Human betaherpesvirus 5; Table 2; read-out: 50% Inhibitory Concentration, HCMV DNA Synthesis
# Experimental: The amount of HCMV DNA synthesis was determined in two types of experiments: (a) as an integral part of HCMV titer (yield) reduction experiments and (b) as separate experiments to determine only the amount of viral DNA synthesis in the absence or presence of test compounds.
# HFF cells were planted in 25 cm^2 flasks and infected with HCMV as described in part 2 and incubated at 37° C. Before harvesting at selected times by the addition of 0.1 volume of 0.2M EDTA, an aliquot of medium was removed for determination of HCMV titer. After harvesting cells into the medium, aliquots were retained for determination of HCMV DNA by hybridization.
# HFF cells were planted in 96-well cluster plates at 20,000 cell/well in 200 μl of growth medium [MEM(E)] with 1.1 gm/liter NaHCO3 and 10% fetal bovine serum. […]
# Following hybridization, the membrane was washed sequentially in 100 ml 2×SSC at room temperature twice each for 5 minutes, 100 ml 2×SCC plus 1% SDS at 65° C. twice each for 30 minutes and then 100 ml 0.1×SSC at room temperature twice each for 30 minute. The membrane was dried at room temperature and each filtration spot was cut from the membrane and placed into 4 ml of toluene/DPO scintillant and hybridized label counted in a liquid scintillation spectrometer.
# MCMV = experiment: Mortality of mice infected with murine cytomegalovirus; assay type: in vivo
# Experimental: Compound UMJD 183 was tested in mice infected with murine cytomegalovirus (MCMV). This animal model has been recognized as having capabilities predictive of efficacy in humans.
# Compound UMJD 183 and the drug ganciclovir (DHPG) were administered to groups of 15 mice each at doses and times of administration shown in Table 3. Each compound at all doses was administered intraperitoneally twice daily for five days beginning at either 6, 24 or 48 hours after virus inoculation. Animals were observed daily and the number dying each day recorded.
# ^a Animlas were treated i.p. twice daily for 5 days with the doses
# stated above. Treatment was initiated at the times indicated following
# [2] = 0.6 mg/kg i.p. twice daily, from 6 h
# [3] = 0.6 mg/kg i.p. twice daily, from 24 h
# [4] = 0.6 mg/kg i.p. twice daily, from 48 h
# [5] = 1.9 mg/kg i.p. twice daily, from 6 h
# [6] = 1.9 mg/kg i.p. twice daily, from 24 h
# [7] = 1.9 mg/kg i.p. twice daily, from 48 h
# [8] = 5.6 mg/kg i.p. twice daily, from 6 h
# [9] = 5.6 mg/kg i.p. twice daily, from 24 h
# [10] = 5.6 mg/kg i.p. twice daily, from 48 h
# [11] = 16.7 mg/kg i.p. twice daily, from 6 h
# [12] = 16.7 mg/kg i.p. twice daily, from 24 h
# [13] = 16.7 mg/kg i.p. twice daily, from 48 h
smiles,measurement,setting,value
"Nc1nc(O)c2ncn(COC(CO)CO)c2n1 [Ganciclovir (DHPG), reference compound]",CC50,[1],> 100 µM
same,IC50,HCMV DNA synthesis,1200 nM
same,MDD (Mean Day of Death),MCMV; [2],4.6
same,Mortality Percent,MCMV; [2],93%
same,MDD (Mean Day of Death),MCMV; [3],5.4
same,Mortality Percent,MCMV; [3],80%
same,MDD (Mean Day of Death),MCMV; [4],5.3
same,Mortality Percent,MCMV; [4],93%
same,MDD (Mean Day of Death),MCMV; [5],5.4
same,Mortality Percent,MCMV; [5],33%
same,MDD (Mean Day of Death),MCMV; [6],4.9
same,Mortality Percent,MCMV; [6],80%
same,MDD (Mean Day of Death),MCMV; [7],4.9
same,Mortality Percent,MCMV; [7],73%
same,MDD (Mean Day of Death),MCMV; [8],4.2
same,Mortality Percent,MCMV; [8],33%
same,MDD (Mean Day of Death),MCMV; [9],5.3
same,Mortality Percent,MCMV; [9],47%
same,MDD (Mean Day of Death),MCMV; [10],5.5
same,Mortality Percent,MCMV; [10],67%
same,MDD (Mean Day of Death),MCMV; [11],3.8
same,Mortality Percent,MCMV; [11],27%
same,MDD (Mean Day of Death),MCMV; [12],5.3
same,Mortality Percent,MCMV; [12],47%
same,MDD (Mean Day of Death),MCMV; [13],5.5
same,Mortality Percent,MCMV; [13],53%
